# Test results as given in patent US5470883A (priority 1994, dated 1995).
# Counter-ions that a name gives are not always drawn. Like-named read-outs stand apart in the source and are kept apart here.
# Key:
# [1] = mild to moderate renal failure; cited from earlier work
# [2] = cited from earlier work
# [3] = tested on: epinephrine vasoconstriction, central artery of the rabbit ear; assay: Transcutaneous oxygen monitor assessment of distal peripheral oxygen tension after epinephrine injection around the central artery of the rabbit ear; assay type: in vivo, New Zealand adult white rabbits; conditions: for effect of pretreatment on epinephrine-induced fall in peripheral blood flow / vasoconstriction: pretreatment two days, then epinephrine, estradiol 0.1 mg/kg/day, tamoxifen 2.0 mg/kg/day
# Experimental: A study utilizing 18 New Zealand adult white rabbits was performed. […] This was injected through a 27 gauge needle directly surrounding the central artery of the rabbit ear. Distally peripheral tissue oxygen tension was assessed utilizing a precalibrated transcutaneous oxygen monitor. Measurements were taken prior to injection to maintenance of a steady state. If a steady state was not reached the experiment was discontinued and retried at a later time. Post-injection measurements were taken until the return to baseline levels or up to two hours post-injection. Measurements were taken at five minute intervals preinjection and at three minute intervals post-injection. Control injections utilized 0.1 cc. of intravenous saline solution.
# In the second phase, six rabbits were used. The animals were pretreated with intravenous injections of estradiol (0.1 mg/kg/day) for two days.
# In phase three, animals from the second group were treated with estradiol and tamoxifen was added (2.0 mg/kg/day) for two days after allowing three weeks for the original estradiol to wash out. Another group of six animals was pretreated with tamoxifen alone (2.0 mg/kg/day) for two days.
# [4] = tested on: tumor cultures without estrogen receptors; conditions: cited from earlier work
# [5] = 100 to 200 times the recommended daily dose; cited from earlier work
# [6] = tested on: perfused rat mesentary; conditions: cited from earlier work
# [7] = tested on: mammary carcinoma in rats induced by DMBA; conditions: cited from earlier work
# [8] = humans; cited from earlier work
# [9] = tested on: renal cortical necrosis; conditions: induced by estrogen plus vasopression; cited from earlier work
# [10] = tested on: breast cancer; conditions: cited from earlier work
# [11] = tested on: estrogen-dependent breast cancer cell cultures; conditions: cited from earlier work
# [12] = single oral dose approximately 0.3 mg/kg
structure (smiles),measurement,setting,value
"CC/C(=C(\c1ccccc1)c1ccc(OCCN(C)C)cc1)c1ccccc1 [tamoxifen citrate, (Z)2-[4-(1,2-diphenyl-1-butenyl)phenoxy]-N, N-dimethylethanamine 2-hydroxy-1,2,3-propranetricarboxylate (1:1)]",dose adjustment in renal failure,[1],dose adjustments are not needed in mild to moderate renal failure
same,"unchanged drug and hydroxylated metabolites, share of total excreted",[2]; excreted mainly as conjugates,30%
same,distribution half life,"[2]; human, in vivo",7 to 14 h
same,elimination half-life,"[2]; human, in vivo",greater than 7 days
same,excretion in urine,[2]; in vivo,only small amounts are excreted in the urine
same,metabolism,[2]; in vivo,metabolised in the liver
same,absorption from the gastrointestinal tract,[2]; oral,well-absorbed from the gastrointestinal tract
same,excretion of radioactivity in the feces,"[2]; radiolabeled tamoxifen citrate, person",most of the radioactivity is slowly excreted in the feces with only small amounts appearing in the urine
same,initial half-life,[2]; [12],7 to 14 h
same,peak blood level of total radioactivity,[2]; [12],0.06-0.14 micrograms/mL
same,"secondary peaks, time",[2]; [12],four
same,time of peak blood level of total radioactivity,[2]; [12],4 to 7 h
same,effect of pretreatment on epinephrine-induced fall in peripheral blood flow / vasoconstriction,[3],completely reversed the vasoconstrictive effects of epinephrine
same,effect of pretreatment on epinephrine-induced fall in peripheral blood flow / vasoconstriction,[3]; listed as tamoxifen (Nolvadex),completely inhibited
same,effect in tumor cultures,[4],no significant effect
same,overdose toxicity,[5],respiratory difficulties and convulsions
same,calcium antagonism,[6],calcium antagonist in perfused rat mesentary
same,frequency of tumor development,[7]; administered with DMBA,decreases the frequency of tumor development
same,effect on DMBA-induced mammary carcinoma,[7]; rats,inhibit or reverse mammary carcinoma in rats
same,overdose cases,[8],no cases of tamoxifen citrate overdose have been reported in humans
same,effect on development of renal cortical necrosis,[9],have an effect on the development of renal cortical necrosis
same,anti-tumor effect at higher dose,"[10]; 40 mg per day, metastatic breast cancer to the lung",higher anti-tumor effect
same,improvement at higher daily doses,[10]; 80 mg daily,have not generally resulted in greater improvement
same,delay of recurrence,"[10]; following total mastectomy and axillary dissection or segmental mastectomy, axillary dissection, and breast radiation, axillary node-negative breast cancer",effective in delaying the reoccurence
same,delay of recurrence,"[10]; following total mastectomy and axillary dissection, post-menopausal women",effective in delaying reoccurence
same,cell reproduction,[11],inhibit cell reproduction
CNC[C@H](O)c1ccc(O)c(O)c1 [epinephrine],"decreased blood flow, % of the preinjection level","[3]; epinephrine 0.1 cc, 1:50,000",50%
same,tissue necrosis,"[3]; epinephrine 0.1 cc, 1:50,000",In no case was there any tissue necrosis
C[C@]12CC[C@@H]3c4ccc(O)cc4CC[C@H]3[C@@H]1CC[C@@H]2O [estradiol],effect of pretreatment on epinephrine-induced fall in peripheral blood flow / vasoconstriction,[3],statistically similar fall in the peripheral blood flow as compared to those animals treated with epinephrine alone
